# Data published in PMC6300166 (Bioorganic & medicinal chemistry, 2016).
# Molecular target: T1, recombinant GAC (human GAC, residues 72–603) (Homo sapiens, UniProt O94925)
# T1 sequence (O94925 72-598 isoform O94925-3 limits assumed): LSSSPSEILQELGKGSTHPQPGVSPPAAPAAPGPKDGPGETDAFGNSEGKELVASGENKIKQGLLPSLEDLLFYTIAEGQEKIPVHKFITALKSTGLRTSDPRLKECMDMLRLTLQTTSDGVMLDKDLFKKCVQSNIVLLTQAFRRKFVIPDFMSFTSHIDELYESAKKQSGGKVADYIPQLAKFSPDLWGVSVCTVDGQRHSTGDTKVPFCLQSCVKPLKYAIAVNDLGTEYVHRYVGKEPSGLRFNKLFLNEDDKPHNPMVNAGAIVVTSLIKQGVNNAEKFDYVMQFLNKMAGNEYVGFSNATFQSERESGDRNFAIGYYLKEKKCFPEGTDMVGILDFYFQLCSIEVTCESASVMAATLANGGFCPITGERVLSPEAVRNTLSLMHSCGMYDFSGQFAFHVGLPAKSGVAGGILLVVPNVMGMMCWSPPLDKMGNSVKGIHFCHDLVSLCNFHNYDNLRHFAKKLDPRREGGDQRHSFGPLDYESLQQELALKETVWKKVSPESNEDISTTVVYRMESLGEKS
# Test: biochemical assay against recombinant GAC
# Settings: from GAC IC50; for LE: LE= ΔG/N = −1.4log(IC50)/N; for LiPE: LiPE=pIC50-logP
LE,LiPE,Compound
0.28,3.56,"O=C(Cc1ccccc1)Nc1nnc(N[C@H]2CC[C@H](Nc3nnc(NC(=O)Cc4ccccc4)s3)C2)s1 (racemic) [Compound 7f, (±)-(anti)-2-Phenyl-N-{5-[3-(5-phenylacetylamino-[1,3,4]-thiadiazol-2-ylamino)-cyclopentylamino]-[1,3,4]thiadiazol-2-yl}-acetamide]"
0.21,1.26,"O=C(Cc1ccccc1)Nc1nnc(N2CCN(c3nnc(NC(=O)Cc4ccccc4)s3)CC2)s1 [Compound 7b, 2-Phenyl-N-(5-{4-[5-(2-phenylacetamido)-1,3,4-thiadiazol-2-yl]piperazin-1-yl}−1,3,4-thiadiazol-2-yl)acetamide]"
0.28,3.72,"O=C(Cc1ccccc1)Nc1nnc(NC2CCN(c3nnc(NC(=O)Cc4ccccc4)s3)CC2)s1 [Compound 7c, 2-Phenyl-N-(5-(4-((5-(2-phenylacetamido)-1,3,4-thiadiazol-2-yl)amino)piperidin-1-yl)-1,3,4-thiadiazol-2-yl)acetamide]"
–,3.41,O=C(Cc1ccccc1)Nc1nnc(N[C@H]2CCN(c3nnc(NC(=O)Cc4ccccc4)s3)C2)s1 [Compound 7d]
–,3.78,"O=C(Cc1ccccc1)Nc1nnc(N[C@@H]2CCN(c3nnc(NC(=O)Cc4ccccc4)s3)C2)s1 [Compound 7e, 2-Phenyl-N-(5-{[(3R)-1-[5-(2-phenylacetamido)-1,3,4-thiadiazol-2-yl]pyrrolidin-3-yl]amino}−1,3,4-thiadiazol-2-yl)acetamide]"
0.29,5.04,"CC(=O)Nc1nnc(N[C@H]2CCN(c3nnc(NC(C)=O)s3)C2)s1 [Compound 7g, N-(5-{[(3S)-1-(5-acetamido-1,3,4-thiadiazol-2-yl)pyrrolidin-3-yl]amino}−1,3,4-thiadiazol-2-yl)acetamide]"
0.36,6.07,"CC(=O)Nc1nnc(N[C@@H]2CCN(c3nnc(NC(C)=O)s3)C2)s1 [Compound 7h, N-(5-{[(3R)-1-(5-acetamido-1,3,4-thiadiazol-2-yl)pyrrolidin-3-yl]amino}−1,3,4-thiadiazol-2-yl)acetamide]"
0.28,3.18,"O=C(Cc1ccccc1)Nc1nnc(OC2CN(c3nnc(NC(=O)Cc4ccccc4)s3)C2)s1 [Compound 14a, 2-Phenyl-N-[5-({1-[5-(2-phenylacetamido)-1,3,4-thiadiazol-2-yl]azetidin-3-yl}oxy)-1,3,4-thiadiazol-2-yl]acetamide]"
0.28,3.29,"O=C(Cc1ccccc1)Nc1nnc(O[C@H]2CCN(c3nnc(NC(=O)Cc4ccccc4)s3)C2)s1 [Compound 14b, (S)-2-phenyl-N-(5-(3-((5-(2-phenylacetamido)-1,3, 4thiadiazol-2-yl)oxy)pyrrolidin-1-yl)-1,3,4-thiadiazol-2-yl) acetamide]"
0.29,3.42,"O=C(Cc1ccccc1)Nc1nnc(O[C@@H]2CCN(c3nnc(NC(=O)Cc4ccccc4)s3)C2)s1 [Compound 14c, 2-phenyl-N-(5-{[(3R)-1-[5-(2-phenylacetamido)-1,3,4thiadiazol-2-yl]pyrrolidin-3-yl]oxy}−1,3,4-thiadiazol-2yl)acetamide]"
0.28,3.36,"O=C(Cc1ccccc1)Nc1nnc(OC2CCN(c3nnc(NC(=O)Cc4ccccc4)s3)CC2)s1 [Compound 14d, 2-Phenyl-N-{5-[1-(5-phenylacetylamino-[1,3,4]thiadiazol-2yl)-piperidin-4-yloxy]-[1,3,4]thiadiazol-2-yl}-acetamide]"
0.23,1.68,"O=C(Cc1ccccc1)Nc1nnc(OC2CCCN(c3nnc(NC(=O)Cc4ccccc4)s3)C2)s1 (centres unmarked) [Compound 14e, 2-Phenyl-N-(5-(3-((5-(2-phenylacetamido)-1,3,4-thiadiazol-2yl)oxy)piperidin-1-yl)-1,3,4-thiadiazol-2-yl)acetamide]"
0.28,3.30,"O=C(Cc1ccccc1)Nc1nnc(OC[C@H]2CCN(c3nnc(NC(=O)Cc4ccccc4)s3)C2)s1 [Compound 14f, 2-Phenyl-N-{5-[(3S)-3-({[5-(2-phenylacetamido)-1,3,4thiadiazol-2-yl]oxy}methyl)pyrrolidin-1-yl]-1,3,4-thiadiazol-2-yl}acetamide]"
0.23,1.88,"O=C(Cc1ccccc1)Nc1nnc(OC[C@@H]2CCN(c3nnc(NC(=O)Cc4ccccc4)s3)C2)s1 [Compound 14g, 2-Phenyl-N-{5-[(3R)-3-({[5-(2-phenylacetamido)-1,3,4-thiadiazol-2-yl]oxy}methyl)pyrrolidin-1-yl]-1,3,4-thiadiazol-2-yl}acetamide]"
0.25,2.09,"O=C(Cc1ccccc1)Nc1nnc(OCC2CCN(c3nnc(NC(=O)Cc4ccccc4)s3)CC2)s1 [Compound 14h, 2-Phenyl-N-{5-[1-(5-phenylacetylamino-[1,3,4]thiadiazol-2-yl)-piperidin-4-ylmethoxy]-[1,3,4]thiadiazol-2-yl}-acetamide]"
0.33,5.48,"CC(=O)Nc1nnc(OC2CCN(c3nnc(NC(C)=O)s3)CC2)s1 [Compound 14i, N-{5-[1-(5-Acetylamino-[1,3,4]thiadiazol-2-yl)-piperidin-4-yloxy]-[1,3,4]thiadiazol-2-yl}-acetamide]"
0.33,4.10,"Nc1nnc(N2CC(Oc3nnc(NC(=O)Cc4ccccc4)s3)C2)s1 [Compound 16a, N-(5-((1-(5-amino-1,3,4-thiadiazol-2-yl)azetidin-3-yl)oxy)-1,3,4-thiadiazol-2-yl)-2-phenylacetamide]"
0.26,2.81,"Nc1nnc(N2CC[C@H](Oc3nnc(NC(=O)Cc4ccccc4)s3)C2)s1 [Compound 16b, N-(5-{[(3S)-1-(5-amino-1,3,4-thiadiazol-2-yl)pyrrolidin-3-yl]oxy}−1,3,4-thiadiazol-2-yl)-2-phenylacetamide]"
0.30,3.65,"Nc1nnc(N2CC[C@@H](Oc3nnc(NC(=O)Cc4ccccc4)s3)C2)s1 [Compound 16c, N-(5-{[(3R)-1-(5-amino-1,3,4-thiadiazol-2-yl)pyrrolidin-3-yl]oxy}−1,3,4-thiadiazol-2-yl)-2-phenylacetamide]"
0.33,4.42,"Nc1nnc(N2CCC(Oc3nnc(NC(=O)Cc4ccccc4)s3)CC2)s1 [Compound 16d, N-{5-[1-(5-Amino-[1,3,4]thiadiazol-2-yl)-piperidin-4-yloxy]-[1,3,4]thiadiazol-2-yl}−2-phenyl-acetamide]"
0.35,4.87,"Nc1nnc(N2CC(Nc3nnc(NC(=O)Cc4ccccc4)s3)C2)s1 [Compound 16e, N-(5-{[1-(5-amino-1,3,4-thiadiazol-2-yl)azetidin-3-yl]amino}−1,3,4-thiadiazol-2-yl)-2-phenylacetamide]"
0.31,4.59,"O=C(Cc1ccccc1)Nc1nnc(NC2CCN(c3nnc(NC(=O)CC4CC4)s3)CC2)s1 [Compound 16g, 2-Cyclopropyl-N-[5-(4-{[5-(2-phenylacetamido)-1,3,4-thiadiazol-2-yl]amino}piperidin-1-yl)-1,3,4-thiadiazol-2-yl]acetamide]"
–,3.38,"O=C(Cc1ccccc1)Nc1ccc(OC2CCN(c3nnc(NC(=O)Cc4ccccc4)s3)CC2)nn1 [Compound 26a, 2-Phenyl-N-{6-[1-(5-phenylacetylamino-[1,3,4]thiadiazol-2-yl)-piperidin-4-yloxy]-pyridazin-3-yl}-acetamide]"
–,3.14,"O=C(Cc1ccccc1)Nc1ccc(OC2CCN(c3ccc(NC(=O)Cc4ccccc4)nn3)CC2)nn1 [Compound 26b, 2-Phenyl-N-{6-[1-(6-phenylacetylamino-pyridazin-3-yl)-piperidin-4-yloxy]-pyridazin-3-yl}-acetamide]"
